PMC10120551, “Novel Glu-based pyrazolo[3,4-d]pyrimidine analogues: design, synthesis and biological evaluation as DHFR and TS dual inhibitors” (Journal of Enzyme Inhibition and Medicinal Chemistry, 2023)

What was measured:
[1] = test system: HOP-62; assay: cells; details: Homo sapiens
[2] = test system: EKVX; assay: cells; details: Homo sapiens
[3] = molecular target: recombinant hDHFR (Homo sapiens, UniProt P00374); assay: DHFR inhibitory assay
Method: DHFR inhibition assay kit (BioVision, K247–100) supplied with recombinant hDHFR was utilised in this assay. The assay was performed as instructed in assay kit[32]. Briefly, in a 96-well clear plate, serial dilutions of the test compound (2 μL) were loaded. […] An assay buffer (100 µl) was used as a Background Control. Then, 40 μL of diluted NADPH in assay buffer (40-fold dilution) was added and mixed well. At 25 °C in the dark, the plate was incubated for 15 min. […] Instantaneously, the absorbance was read at 340 nm for 10–20 min at 25 °C in kinetic mode by Robonik ELISA plate reader. Finally, the activity and relative inhibition percentages were measured using the equations indicated in the assay kit[33–35].

[4] = test system: NCI-H226; assay: cells; details: Homo sapiens
[5] = test system: DU-145; assay: cells; details: Homo sapiens
[6] = test system: Renal cancer subpanel; assay: NCI five-dose screen, subpanel MG-MID; assay type: cell-based, human
Method: (§1) (Figures S53–S56 in Supporting Information). This assay evaluates GI50, TGI, and LC50 parameters, as cited in Table 1. Their values correspondingly represent the GI level, cytostatic impact, and cytotoxicity parameter. Furthermore, based on the GI50 values, the mean graph midpoints (MG-MID) for both full NCI 59 cell panel and subpanel cancer cell lines were evaluated, affording a median potency parameter for the examined compound 6i, as depicted in Table 2.
(§2) Moreover, the selectivity index (SI) of the most efficient analogue 6i was calculated from the division of full-panel MG-MID by subpanel MG-MID. A value greater than 6 implies high selectivity, whereas a ratio from 3 to 6 denotes moderate selectivity. Otherwise, the compound is referred to as non-selective.[24] […] Therefore, the outstanding anti-cancer profile of compound 6i against the herein examined NCI-59 cell panels inspired us to explore its mechanism of action further.
(§3) The designed analogues were submitted to NCI-Chemotherapeutic Agents Repository (MD, USA) for screening on a panel of 59 cancer cell lines. All compounds were initially examined at 10 µM concentration (Single-Dose Screen), and then the most efficient analogue 6i was screened further at 0.01–100 µM (Five-Dose Screen). The screening procedures were performed according to NCI-Drug Evaluation Branch protocol using SRB protein assay, as described previously[21]^,[66]. The experimental procedures were detailed in the Supporting Information.

[7] = test system: Leukaemia subpanel; assay: NCI five-dose screen, subpanel MG-MID; assay type: cell-based, human
Method: as §1, §2, §3

[8] = test system: Colon cancer subpanel; assay: NCI five-dose screen, subpanel MG-MID; assay type: cell-based, human
Method: as §1, §2, §3

[9] = test system: Ovarian cancer subpanel; assay: NCI five-dose screen, subpanel MG-MID; assay type: cell-based, human
Method: as §1, §2, §3

[10] = test system: Breast cancer subpanel; assay: NCI five-dose screen, subpanel MG-MID; assay type: cell-based, human
Method: as §1, §2, §3

[11] = test system: Non-small cell lung cancer subpanel; assay: NCI five-dose screen, subpanel MG-MID; assay type: cell-based, human
Method: as §1, §2, §3

[12] = test system: Prostate cancer subpanel; assay: NCI five-dose screen, subpanel MG-MID; assay type: cell-based, human
Method: as §1, §2, §3

[13] = test system: CNS cancer subpanel; assay: NCI five-dose screen, subpanel MG-MID; assay type: cell-based, human
Method: as §1, §2, §3

[14] = test system: Melanoma subpanel; assay: NCI five-dose screen, subpanel MG-MID; assay type: cell-based, human
Method: as §1, §2, §3

[15] = test system: CAKI-1; details: CAKI-1, Renal cancer; five-dose 0.01–100 µM
[16] = test system: SF-268; details: SF-268, CNS cancer; five-dose 0.01–100 µM
[17] = test system: OVCAR-3; details: OVCAR-3, Ovarian cancer; five-dose 0.01–100 µM
[18] = test system: OVCAR-3 (Ovarian Cancer); assay: MTT cytotoxicity assay; assay type: cell-based, human; details: for IC50: OVCAR-3, MTT, 48 h, mean ± SD from triplicates
Method: (§4) The MTT assay was carried out according to the procedure cited earlier. Briefly, in a 96-well plate, either cancer or normal cells were seeded (10^6 cells/cm^2; 100 µL/well) and incubated for 12 h at 37 °C and CO2 (5%), then serial dilutions of compound 6i were added and incubated for 48 h using DMSO control (0.5% V/V). MTT (3-(4,5-dimethylthiazoyl)-2,5-diphenyl-tetrazolium bromide; Cat. No. M-5655) 5 mg/mL was then added. After 4 h incubation, the formed MTT formazan crystals were solubilised by 10% Triton X-100 plus 0.1 N HCl in anhydrous isopropanol. The absorbance was read using a Bioline plate reader at λ570–630 nm[25–29]. The selectivity of 6i towards HSF cells was also determined as follows[30]^,[31]: SI=IC50HSF cells/IC50of cancer cells

[19] = test system: PC-3 (Prostate cancer); assay: MTT cytotoxicity assay; assay type: cell-based, human
Method: as §4

[20] = test system: MCF-7 (Breast cancer); assay: MTT cytotoxicity assay; assay type: cell-based, human
Method: as §4

[21] = test system: SK-MEL-2; details: SK-MEL-2, Melanoma; five-dose 0.01–100 µM
[22] = test system: NCI-H460; assay: cells; details: Homo sapiens
[23] = test system: HL-60(TB); details: Leukaemia, five-dose 0.01–100 µM

Chain of recombinant hDHFR (P00374 whole entry): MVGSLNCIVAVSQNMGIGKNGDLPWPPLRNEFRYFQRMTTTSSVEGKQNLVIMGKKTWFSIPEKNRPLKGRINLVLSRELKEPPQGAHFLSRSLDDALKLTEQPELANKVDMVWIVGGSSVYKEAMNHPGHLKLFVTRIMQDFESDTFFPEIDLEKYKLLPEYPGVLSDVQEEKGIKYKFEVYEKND

Compound: CCOC(=O)CC[C@H](NC(=O)c1ccc(NC(=O)Cn2cnc3c(c(C)nn3-c3ccc(Br)cc3)c2=O)cc1)C(=O)OCC [Compound 6i]
- GI50 ([1]; HOP-62): 5.11 µM
- CC50 ([1]; HOP-62, read-out: LC50): 57.5 µM
- GI50 [2]: 10.4 µM
- CC50 ([2]; read-out: LC50): 71.7 µM
- IC50 [3]: 2.41 ± 0.13 µM
- GI50 [4]: 4.54 µM
- GI50 ([5]; DU-145): 7.47 µM
- CC50 ([5]; DU-145, read-out: LC50): > 100 µM
- MG-MID ([6]; Renal cancer subpanel, based on GI50): 19.19 µM
- Selectivity index ([6]; Renal cancer, full-panel MG-MID / subpanel MG-MID): 1.06
- MG-MID ([7]; Leukaemia subpanel, based on GI50): 68.03 µM
- Selectivity index ([7]; Leukaemia, full-panel MG-MID / subpanel MG-MID): 0.30
- MG-MID ([8]; Colon cancer subpanel, based on GI50): 18.34 µM
- Selectivity index ([8]; Colon cancer, full-panel MG-MID / subpanel MG-MID): 1.11
- MG-MID ([9]; Ovarian cancer subpanel, based on GI50): 16.52 µM
- Selectivity index ([9]; Ovarian cancer, full-panel MG-MID / subpanel MG-MID): 1.23
- MG-MID ([10]; Breast cancer subpanel, based on GI50): 15.29 µM
- Selectivity index ([10]; Breast cancer, full-panel MG-MID / subpanel MG-MID): 1.33
- MG-MID ([11]; Non-small cell lung cancer subpanel, based on GI50): 10.62 µM
- Selectivity index ([11]; Non-small cell lung cancer, full-panel MG-MID / subpanel MG-MID): 1.92
- MG-MID ([12]; Prostate cancer subpanel, based on GI50): 6.63 µM
- Selectivity index ([12]; Prostate cancer, full-panel MG-MID / subpanel MG-MID): 3.08
- MG-MID ([13]; CNS cancer subpanel, based on GI50): 12.70 µM
- Selectivity index ([13]; CNS cancer, full-panel MG-MID / subpanel MG-MID): 1.61
- MG-MID ([14]; Melanoma subpanel, based on GI50): 16.8 µM
- Selectivity index ([14]; Melanoma, full-panel MG-MID / subpanel MG-MID): 1.21
- TGI [15]: 22.1 µM
- TGI [16]: 32.8 µM
- TGI [17]: 61.3 µM
- IC50 ([18]; Homo sapiens, OVCAR-3, 48 h): 11.5 µM
- Selectivity index ([18]; IC50 HSF cells / IC50 OVCAR-3): 4.21
- IC50 [18]: 11.5 ± 0.58 µM
- IC50 ([19]; Homo sapiens, PC-3, MTT, 48 h, mean ± SD from triplicates): 12.4 ± 0.62 µM
- Selectivity index ([19]; IC50 HSF cells / IC50 PC-3): 3.91
- IC50 ([20]; Homo sapiens, MCF7, MCF-7, MTT, 48 h, mean ± SD from triplicates): 4.4 ± 0.26 µM
- Selectivity index ([20]; IC50 HSF cells / IC50 MCF-7): 11.02
- TGI [21]: 89.1 µM
- GI50 ([22]; NCI-H460): 13.7 µM
- CC50 ([22]; NCI-H460, read-out: LC50): 86.9 µM
- TGI [23]: >100 µM
